A value given as a limit tells only on which side of the number the result lay.

Sequence of recombinant human integrin αvβ6 (P06756 31-992): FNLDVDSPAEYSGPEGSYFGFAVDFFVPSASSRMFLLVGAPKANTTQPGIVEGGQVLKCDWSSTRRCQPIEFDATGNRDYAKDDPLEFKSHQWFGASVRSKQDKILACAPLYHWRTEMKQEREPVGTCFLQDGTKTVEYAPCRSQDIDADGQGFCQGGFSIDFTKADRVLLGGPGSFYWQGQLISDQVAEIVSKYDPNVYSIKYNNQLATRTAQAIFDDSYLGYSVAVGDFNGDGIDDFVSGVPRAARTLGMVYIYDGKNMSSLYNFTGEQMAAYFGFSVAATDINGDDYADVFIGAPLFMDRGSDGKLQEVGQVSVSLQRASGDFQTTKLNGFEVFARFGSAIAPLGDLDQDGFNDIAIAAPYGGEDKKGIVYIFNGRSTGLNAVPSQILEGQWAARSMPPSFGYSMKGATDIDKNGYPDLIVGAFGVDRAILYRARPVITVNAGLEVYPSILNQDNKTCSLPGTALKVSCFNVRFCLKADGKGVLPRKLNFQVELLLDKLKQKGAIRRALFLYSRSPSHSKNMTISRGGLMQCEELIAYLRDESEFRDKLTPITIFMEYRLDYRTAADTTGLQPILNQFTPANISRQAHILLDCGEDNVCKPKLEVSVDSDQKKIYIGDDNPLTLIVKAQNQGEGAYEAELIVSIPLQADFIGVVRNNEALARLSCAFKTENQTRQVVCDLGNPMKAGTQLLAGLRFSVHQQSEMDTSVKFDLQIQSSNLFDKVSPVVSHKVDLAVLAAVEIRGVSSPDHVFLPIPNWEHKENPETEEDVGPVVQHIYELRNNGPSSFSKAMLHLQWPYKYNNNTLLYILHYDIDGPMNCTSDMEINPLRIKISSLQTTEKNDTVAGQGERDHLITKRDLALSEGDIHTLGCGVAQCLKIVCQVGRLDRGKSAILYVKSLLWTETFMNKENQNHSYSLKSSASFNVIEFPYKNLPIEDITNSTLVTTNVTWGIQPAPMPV
Sequence of recombinant human integrin αvβ6 (P18564 22-707): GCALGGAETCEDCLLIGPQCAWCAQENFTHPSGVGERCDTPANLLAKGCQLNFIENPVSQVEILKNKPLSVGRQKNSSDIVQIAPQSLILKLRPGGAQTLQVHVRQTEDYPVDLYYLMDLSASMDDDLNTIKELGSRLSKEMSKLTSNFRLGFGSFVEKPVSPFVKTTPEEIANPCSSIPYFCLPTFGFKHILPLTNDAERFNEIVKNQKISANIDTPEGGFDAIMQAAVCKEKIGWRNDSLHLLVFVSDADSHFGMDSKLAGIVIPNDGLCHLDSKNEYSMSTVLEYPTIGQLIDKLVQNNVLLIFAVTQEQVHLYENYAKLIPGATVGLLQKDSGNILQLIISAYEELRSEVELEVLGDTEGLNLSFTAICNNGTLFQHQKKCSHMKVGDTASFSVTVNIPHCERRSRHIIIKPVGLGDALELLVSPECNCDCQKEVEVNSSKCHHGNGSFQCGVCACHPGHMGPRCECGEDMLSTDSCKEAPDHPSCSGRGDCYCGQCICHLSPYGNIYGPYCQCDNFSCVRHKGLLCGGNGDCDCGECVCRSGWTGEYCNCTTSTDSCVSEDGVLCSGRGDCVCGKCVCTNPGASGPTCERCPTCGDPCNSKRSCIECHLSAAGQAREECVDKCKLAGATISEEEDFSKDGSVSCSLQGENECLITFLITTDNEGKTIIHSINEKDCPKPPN

The target of this assay is recombinant human integrin αvβ6 (Homo sapiens (Human), UniProt P06756+P18564). The assay is described as follows: Solid Phase Integrin αvβ6 Binding Assay (Examples B1, B2). Conditions: TGFβ1 LAP ligand, values given in four ranges, read-out: αvβ6 Inhibition IC50 (nM)-range. As for the experimental part:
(§1) Microplates were coated with recombinant human integrin αvβ6 (2 μg/mL) in PBS (100 μL/well 25° C., overnight). The coating solution was removed, washed with wash buffer (0.05% Tween 20; 0.5 mM MnCl2; in 1×TBS). The plate was blocked with 200 μL/well of Block Buffer (1% BSA; 5% sucrose; 0.5 mM MnCl2; in 1×TBS) at 37° C. for 2 h. Dilutions of testing compounds and recombinant TGFβ1 LAP (0.67 μg/mL) in binding buffer (0.05% BSA; 2.5% sucrose; 0.5 mM MnCl2; in 1×TBS) were added. The plate was incubated for 2 hours at 25° C., washed, and incubated for 1 hour with Biotin-Anti-hLAP. Bound antibody was detected by peroxidase-conjugated streptavidin. The IC50 values for testing compounds were calculated by four-parameter logistic regression.
The compounds tested were compound samples prepared according to procedures described in the Synthetic Examples section, with the stereochemical purity as indicated in the Examples.
as §1, with “A third series of exemplary compounds was selected for testing in the solid phase integrin αvβ6 binding assay. The compounds tested were compound samples prepared according to procedures described in the Synthetic Examples section, with the stereochemical purity as indicated in the Examples. As in Example B1, microplates were coated” for “Microplates were coated”, “calculated by a four-parameter logistic” for “calculated by four-parameter logistic”
In general, IC50 refers to the concentration at which inhibition is half-maximal. For `O=C(O)[C@H](CCN(CCCCc1ccc2c(n1)NCCC2)CC(F)F)Nc1ncc(C2CC2)cn1` [Compound 146, (S)-2-((5-cyclopropylpyrimidin-2-yl)amino)-4-((2,2-difluoroethyl) (4-(5,6,7,8-tetrahydro-1,8-naphthyridin-2-yl)butyl)amino) butanoic acid], the IC50 is greater than 1000 nM.
Consider `Cn1ncc2c(N[C@@H](CCN(CCCF)CCCCc3ccc4c(n3)NCCC4)C(=O)O)ncnc21` [Compound 136, (S)-4-((3-fluoropropyl) (4-(5,6,7,8-tetrahydro-1,8-naphthyridin-2-yl)butyl)amino)-2-((1-methyl-1H-pyrazolo[3,4-d]pyrimidin-4-yl)amino) butanoic acid], for which the half-maximal inhibitory concentration (IC50) was less than 50 nM.
The result for `CO[C@H](C)CN(CCCCc1ccc2c(n1)NCCC2)CC[C@H](Nc1ncc(C2CC2)cn1)C(=O)O` [Compound 124, (S)-2-((5-cyclopropylpyrimidin-2-yl)amino)-4-(((R)-2-methoxypropyl) (4-(5,6,7,8-tetrahydro-1,8-naphthyridin-2-yl)butyl)amino) butanoic acid] reads less than 50 nM; that for `Cc1ncccc1OCCN(CCCCc1ccc2c(n1)NCCC2)CC[C@H](Nc1ncnc2cccnc12)C(=O)O` [Compound 54, (S)-4-((2-((2-methylpyridin-3-yl)oxy)ethyl) (4-(5,6,7,8-tetrahydro-1,8-naphthyridin-2-yl)butyl)amino)-2-(pyrido[3,2-d]pyrimidin-4-ylamino) butanoic acid], less than 50 nM; that for `CO[C@H](C)CN(CCCCc1ccc2c(n1)NCCC2)CC[C@H](Nc1ccnc(C(F)(F)F)n1)C(=O)O` [Compound 72, (S)-4-(((R)-2-methoxypropyl) (4-(5,6,7,8-tetrahydro-1,8-naphthyridin-2-yl)butyl)amino)-2-((2-(trifluoromethyl)pyrimidin-4-yl)amino) butanoic acid], less than 50 nM.
For the molecule `Cc1nc(N[C@@H](CCN(CCCCc2ccc3c(n2)NCCC3)CCOC2CC2(F)F)C(=O)O)c2ccc(F)cc2n1` (stereo partly drawn) [Compound 42, (2S)-4-((2-(2,2-difluorocyclopropoxy)ethyl) (4-(5,6,7,8-tetrahydro-1,8-naphthyridin-2-yl)butyl)amino)-2-((7-fluoro-2-methylquinazolin-4-yl)amino) butanoic acid], the half-inhibitory concentration (IC50) was less than 50 nM.
With `CS(=O)(=O)CCN(CCCCc1ccc2c(n1)NCCC2)CC[C@H](Nc1ncc(Br)cn1)C(=O)O` [Compound 103, (S)-2-((5-bromopyrimidin-2-yl)amino)-4-((2-(methylsulfonyl)ethyl) (4-(5,6,7,8-tetrahydro-1,8-naphthyridin-2-yl)butyl)amino) butanoic acid], the half-inhibitory concentration (IC50) was greater than 1000 nM.
In the case of `COCCN(CCCCc1ccc2c(n1)NCCC2)CC[C@H](Nc1cc(C)nc(C(F)(F)F)n1)C(=O)O` [Compound 26, (S)-4-((2-methoxyethyl) (4-(5,6,7,8-tetrahydro-1,8-naphthyridin-2-yl)butyl)amino)-2-((6-methyl-2-(trifluoromethyl)pyrimidin-4-yl)amino) butanoic acid], the IC50 was less than 50 nM.
Turning to `O=C(O)[C@H](CCN(CCCCc1ccc2c(n1)NCCC2)CC(F)F)Nc1ncc(C(F)(F)F)cn1` [Compound 95, (S)-4-((2,2-difluoroethyl) (4-(5,6,7,8-tetrahydro-1,8-naphthyridin-2-yl)butyl)amino)-2-((5-(trifluoromethyl)pyrimidin-2-yl)amino) butanoic acid], the IC50 is greater than 1000 nM.
Consider `O=C(O)[C@H](CCN(CCCCc1ccc2c(n1)NCCC2)CC(F)F)Nc1ccnc(C(F)(F)F)n1` [Compound 97, (S)-4-((2,2-difluoroethyl) (4-(5,6,7,8-tetrahydro-1,8-naphthyridin-2-yl)butyl)amino)-2-((2-(trifluoromethyl)pyrimidin-4-yl)amino) butanoic acid], for which the IC50 was greater than 1000 nM.

The values above are taken from patent US11419869B2, “Dosage forms and regimens for amino acid compounds” (Pliant Therapeutics, Inc., priority 2019, dated 2022).
